Assay results published in patent US6944493B2 (priority 1999, dated 2005).

Key:
[1] = Viscosity evaluation; assay type: physicochemical; conditions: ICG 50 mg/ml to 75 mg/ml, WFI as the lone diluent

Row | solubility in WFI (non-lyophilized, crystalline material) | consistency of composition [1] | Structure (SMILES) | solubility in WFI versus inventive diluent (lyophilized (amorphous) material)
1 | low solubility in WFI |  | CC1(C)C(/C=C/C=C/C=C/C=C2\N(CCCCS(=O)(=O)O)c3ccc4ccccc4c3C2(C)C)=[N+](CCCCS(=O)(=O)[O-])c2ccc3ccccc3c21 [crystalline ICG, Indocyanine green] | 
2 |  | paste-like consistency | CC1(C)C(/C=C/C=C/C=C/C=C2\N(CCCCS(=O)(=O)O)c3ccc4ccccc4c3C2(C)C)=[N+](CCCCS(=O)(=O)[O-])c2ccc3ccccc3c21 [ICG, Indocyanine green] | comparable up to 25 mg/ml, wherein the inventive diluent is superior at concentrations above that level
